Results reported in paper PMC8086230 (Acta Pharmacologica Sinica, 2021).
Like-named read-outs stand apart in the source and are kept apart here.

How the values were obtained:
[1] = not given; remark: listed apart in the source
mock HEK-293 cells = assay: Passive diffusion in mock HEK-293 cells; type: in vitro ADME, human
[2] = BCS classification stated in the discussion
human renal 11β-HSD2 = target: T1, human renal 11β-HSD2 (Homo sapiens, UniProt P80365); type: biochemical; conditions: read-out: Km for human 11β-HSD2
T1 sequence (P80365 1-405): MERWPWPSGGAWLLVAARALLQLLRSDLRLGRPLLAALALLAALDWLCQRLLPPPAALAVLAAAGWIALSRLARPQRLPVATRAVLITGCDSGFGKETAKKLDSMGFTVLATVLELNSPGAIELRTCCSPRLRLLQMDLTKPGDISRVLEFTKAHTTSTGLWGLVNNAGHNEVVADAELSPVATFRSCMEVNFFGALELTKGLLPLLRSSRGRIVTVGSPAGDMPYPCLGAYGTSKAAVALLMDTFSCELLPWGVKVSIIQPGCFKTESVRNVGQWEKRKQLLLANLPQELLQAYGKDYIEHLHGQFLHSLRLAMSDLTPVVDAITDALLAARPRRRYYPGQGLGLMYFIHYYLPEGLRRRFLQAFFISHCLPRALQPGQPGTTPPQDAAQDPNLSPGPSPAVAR

[3] = after orally dosing LianhuaQingwen, 12 capsules/person

## CC1(C(=O)OC2OC(C(=O)O)C(O)C(O)C2O)CC(O)C2(C)CCC3(C)C(=CC(=O)C4C5(C)CCC(OS(=O)(=O)O)C(C)(C)C5CCC43C)C2C1 (stereo not drawn) [22α-hydroxyglycyrrhetic acid-3-O-sulfate-30-O-glucuronide]
rat, in vivo, po
  Detection in rat plasma or urine samples: not detected
[1]; in vivo, po
  Detection in human plasma and urine samples: not detected

## 22α-hydroxyglycyrrhetic acid-3-O-sulfate
rat, in vivo, po
  Detection in rat plasma or urine samples: not detected
[1]; in vivo, po
  Detection in human plasma and urine samples: not detected

## O=C(/C=C/c1ccc(O)cc1)c1ccc(O)cc1O [Compound 26, Isoliquiritigenin]
[1]; [3]
  Presence in human samples: Plasma, urine, feces

## O=C(CCc1ccc(O)cc1)c1ccc(O)cc1O [Compound M27R, Davidigenin]
[1]; in vivo, po
  Presence in human samples: Urine

## O=C1C[C@@H](c2ccc(O[C@@H]3O[C@H](CO)[C@@H](O)[C@H](O)[C@H]3O)cc2)Oc2cc(O)ccc21 [Compound 21, Liquiritin]
Mock HEK-293 cells; human, 10 min, 50 µmol/L
  transport rate, membrane permeation in mock cells: < 5 pmol·min^−1·mg^−1 protein
[2]
  BCS Class: BCS Class III
rat, in vivo, po
  Presence in rat samples: Plasma, bile, urine, feces
[1]; in vivo, po
  Presence in human samples: Plasma, urine

## CC1(C)[C@@H](O[C@@H]2O[C@H](C(=O)O)[C@@H](O)[C@H](O)[C@H]2O[C@@H]2O[C@H](C(=O)O)[C@@H](O)[C@H](O)[C@H]2O)CC[C@]2(C)[C@H]3C(=O)C=C4[C@@H]5C[C@](C)(C(=O)O)CC[C@]5(C)CC[C@@]4(C)[C@]3(C)CC[C@@H]12 [Compound 3, Licorice saponin H2]
rat, in vivo, po
  Presence in rat samples: Plasma, bile, urine, feces

## CC1(C)[C@@H](O[C@H]2O[C@H](C(=O)O)[C@@H](O)[C@H](O)[C@H]2O[C@@H]2O[C@H](C(=O)O)[C@@H](O)[C@H](O)[C@H]2O)CC[C@]2(C)[C@H]3C(=O)C=C4[C@@H]5C[C@@](C)(C(=O)O)CC[C@]5(C)CC[C@@]4(C)[C@]3(C)CC[C@@H]12 [Compound 1, Glycyrrhizin]
Mock HEK-293 cells
  transport rate, membrane permeation in mock cells: < 5 pmol·min^−1·mg^−1 protein
[2]
  BCS Class: BCS Class III
rat, in vivo, po
  Presence in rat samples: Plasma, bile, urine, feces
[1]; in vivo, po
  Presence in human samples: Plasma, urine, feces

## C[C@]12CCC(=O)C=C1CC[C@@H]1[C@@H]2[C@@H](O)C[C@@]2(C)[C@H]1CC[C@]2(O)C(=O)CO [cortisol]
Human renal 11β-HSD2
  Km: 0.045 µM

## O=C(/C=C/c1ccc(O[C@@H]2O[C@H](CO)[C@@H](O)[C@H](O)[C@H]2O)cc1)c1ccc(O)cc1O [Compound 24, Isoliquiritin]
After orally dosing LianhuaQingwen, 3.78 g/kg
  Presence in rat samples: Plasma, bile, urine, feces
[1]; [3]
  Presence in human samples: Plasma, urine
